# From US10513519B2, “Solid forms of (1S,4S)-4-(2-(((3S,4R)-3-fluorotetrahydro-2H-pyran-4-yl)amino)-8-((2,4,6-trichlorophenyl)amino)-9H-purin-9-yl)-1-methylcyclohexane-1-carboxamide and methods of their use” (Signal Pharmaceuticals, LLC, priority 2016, dated 2019)
# Columns and labels:
# [1] = test system: 64 cancer cell lines; test: Anti-proliferative activity across a panel of 64 cancer cell lines (CellTiter-Glo); format: cell-based
# Protocol: Prior to testing, cells were grown and expanded in culture flasks to provide sufficient amounts of starting material. Cells were then diluted to the appropriate densities and added directly to the compound-spotted 384-well plates. Cells were allowed to grow for 72 h at 37° C./5% CO2. At the time when compound was added (to), initial cell number was assessed via a viability assay (Cell Titer-Glo) by quantifying the level of luminescence generated by ATP present in viable cells. After 72 h, cell viability of compound-treated cells was assessed via Cell Titer-Glo and luminescence measurement. The apoptotic response to Compound 1 was assessed by quantifying the activities of caspase 3 and caspase 7 (Caspase 3/7-Glo) in treated cells and DMSO control cells.
# Cells were treated with DMSO or increasing concentrations of Compound 1 for 72 h. Proliferation was measured using CellTiter-Glo as described.
# [2] = test system: SW48 (colo) cells; test: Long term colony assay, SW48; format: cell-based; settings: SW48, up to 8 weeks
# Protocol: Compound 1 was assessed for its ability to inhibit the colony formation of cancer cells via a long-term colony forming assay. Cells and compounds were added to 96-well plates and were monitored for up to 8 weeks for the formation of colonies. Compound and media were replenished every 1 week throughout the course of the assay. Colony formation was detected via imaging at 4× on the IncuCyte ZOOM System. […] (FIGS. 210A-210D).
# [3] = HUH-6-clone5, 72 h, HuH-6-Clone5 (Liver)
# [4] = HepG2/C3A, 72 h, HepG2/C3A (Liver)
# [5] = Homo sapiens, A549, 72 h, A549 (Lung)
# [6] = Homo sapiens, A-375, 72 h, A375 (Melanoma)
# [7] = Homo sapiens, BXPC-3, 72 h, BxPC-3 (Pancreas)
# [8] = Homo sapiens, CFPAC-1, 72 h, CFPAC-1 (Pancreas)
# [9] = Homo sapiens, COLO 205, 72 h, Colo 205 (Colon)
# [10] = Homo sapiens, HCT-116, 72 h, HCT-116 (Colon)
# [11] = Homo sapiens, HOP-62, 72 h, HOP62 (Lung)
# [12] = Homo sapiens, HOP-92, 72 h, HOP92 (Lung)
# [13] = Homo sapiens, HT-29, 72 h, HT29 (Colon)
# [14] = Homo sapiens, HT-29, 72 h, HT29/219 (Colon)
# [15] = Homo sapiens, Hep3B, 72 h, Hep3B (Liver)
# [16] = Homo sapiens, HepG2, 72 h, HepG2 (Liver)
# [17] = Homo sapiens, HuCCT-1, 72 h, HuCCT1 (Liver)
# [18] = Homo sapiens, HuH-1, 72 h, HuH-1 (Liver)
# [19] = Homo sapiens, Huh-7, 72 h, HuH-7 (Liver)
# [20] = Homo sapiens, K562, 72 h, K-562 (Leukemia)
# [21] = Homo sapiens, KATO III, 72 h, KATOIII, Stomach
# [22] = Homo sapiens, LOX IMVI, 72 h, LOX-IMVI (Melanoma)
# [23] = Homo sapiens, LoVo, 72 h, LOVO (Colon)
# [24] = Homo sapiens, MDA-MB-231, 72 h, MDA-MB-231 (Breast)
# [25] = Homo sapiens, Malme-3M, 72 h, MALME-3M (Melanoma)
# [26] = Homo sapiens, NCI-H23, 72 h, NCI-H23 (Lung)
# [27] = Homo sapiens, NCI-H28, 72 h, NCI-H28 (Lung)
# [28] = Homo sapiens, NCI-H226, 72 h, NCI-H226 (Lung)
# [29] = Homo sapiens, NCI-H441, 72 h, NCI-H441 (Lung)
# [30] = Homo sapiens, NCI-H460, 72 h, NCI-H460 (Lung)
# [31] = Homo sapiens, NCI-H520, 72 h, NCI-H520 (Lung)
# [32] = Homo sapiens, NCI-H838, 72 h, NCI-H838 (Lung)
# [33] = Homo sapiens, NCI-H1299, 72 h, NCI-H1299 (Lung)
# [34] = Homo sapiens, NCI-H1703, 72 h, NCI-H1703 (Lung)
# [35] = Homo sapiens, NCI-H1755, 72 h, NCI-H1755 (Lung)
# [36] = Homo sapiens, NCI-H1975, 72 h, NCI-H1975 (Lung)
# [37] = Homo sapiens, NCI-H2122, 72 h, NCI-H2122 (Lung)
# [38] = Homo sapiens, PANC-1, 72 h, PANC-1 (Pancreas)
# [39] = Homo sapiens, PLC-PRF-5, 72 h, PLC-PRF-5 (Liver)
# [40] = Homo sapiens, RPMI-8226, 72 h, RPMI-8226 (Multiple myeloma)
# [41] = Homo sapiens, SK-HEP1, 72 h, SK-HEP-1 (Liver)
# [42] = Homo sapiens, SNU-182, 72 h, SNU-182 (Liver)
# [43] = Homo sapiens, SNU-387, 72 h, SNU-387 (Liver)
# [44] = Homo sapiens, SNU-398, 72 h, SNU-398 (Liver)
# [45] = Homo sapiens, SNU-423, 72 h, SNU-423 (Liver)
# [46] = Homo sapiens, SNU-449, 72 h, SNU-449 (Liver)
# [47] = Homo sapiens, SNU-475, 72 h, SNU-475 (Liver)
# [48] = Homo sapiens, SW48, 72 h, SW48 (Colon)
# [49] = Homo sapiens, SW900, 72 h, SW900 (Lung)
# [50] = Homo sapiens, SW1417, 72 h, SW1417 (Colon)
# [51] = Homo sapiens, SW-620, 72 h, SW620 (Colon)
# [52] = Mel202, 72 h, MEL-202 (Melanoma)
smiles,measurement,setting,value
"C[C@]1(C(N)=O)CC[C@@H](n2c(Nc3c(Cl)cc(Cl)cc3Cl)nc3cnc(N[C@@H]4CCOC[C@H]4F)nc32)CC1 [Compound 1, cis-4-[2-{[(3S,4R)-3-fluorooxan-4-yl]amino}-8-(2,4,6-trichloroanilino)-9H-purin-9-yl]-1-methylcyclohexane-1-carboxamide]",GI50,"[1]; 72 h, 92-1 (Melanoma)",10.2 nM
same,IC50,"[1]; 72 h, 92-1 (Melanoma)",31.6 nM
same,GI50,"[1]; 72 h, AGS, Stomach",23 nM
same,IC50,"[1]; 72 h, AGS, Stomach",28 nM
same,GI50,"[1]; 72 h, FOCUS (Liver)",1500 nM
same,IC50,"[1]; 72 h, FOCUS (Liver)",4300 nM
same,GI50,"[1]; 72 h, HLE (Liver)",4850 nM
same,IC50,"[1]; 72 h, HLE (Liver)",9620 nM
same,GI50,"[1]; 72 h, HLF (Liver)",6680 nM
same,IC50,"[1]; 72 h, HLF (Liver)",7390 nM
same,GI50,"[1]; 72 h, JHH-5 (Liver)",4.5 nM
same,IC50,"[1]; 72 h, JHH-5 (Liver)",7 nM
same,GI50,"[1]; 72 h, JHH-6 (Liver)",10000 nM
same,IC50,"[1]; 72 h, JHH-6 (Liver)",10000 nM
same,GI50,"[1]; 72 h, PC-9 (Lung)",217 nM
same,IC50,"[1]; 72 h, PC-9 (Lung)",379 nM
same,proliferation of multiple cancer cell lines,"[1]; 72 h, CRC, melanoma, gastric cancer, HCC, lung cancer, pancreatic cancer, leukemia, multiple myeloma",inhibit the proliferation
same,GI50,[1]; [3],29.1 nM
same,IC50,[1]; [3],1220 nM
same,GI50,[1]; [4],4620 nM
same,IC50,[1]; [4],10000 nM
same,GI50,[1]; [5],40.2 nM
same,IC50,[1]; [5],82.2 nM
same,GI50,[1]; [6],21 nM
same,IC50,[1]; [6],24 nM
same,GI50,[1]; [7],36.8 nM
same,IC50,[1]; [7],70.8 nM
same,GI50,[1]; [8],1950 nM
same,IC50,[1]; [8],7400 nM
same,GI50,[1]; [9],25 nM
same,IC50,[1]; [9],40 nM
same,GI50,[1]; [10],17 nM
same,IC50,[1]; [10],22 nM
same,GI50,[1]; [11],339 nM
same,IC50,[1]; [11],3490 nM
same,GI50,[1]; [12],108 nM
same,IC50,[1]; [12],117 nM
same,GI50,[1]; [13],16 nM
same,IC50,[1]; [13],25 nM
same,GI50,[1]; [14],1.7 nM
same,IC50,[1]; [14],4.5 nM
same,GI50,[1]; [15],5.3 nM
same,IC50,[1]; [15],14.7 nM
same,GI50,[1]; [16],34.6 nM
same,IC50,[1]; [16],1240 nM
same,GI50,[1]; [17],25.3 nM
same,IC50,[1]; [17],1300 nM
same,GI50,[1]; [18],235 nM
same,IC50,[1]; [18],7260 nM
same,GI50,[1]; [19],21.2 nM
same,IC50,[1]; [19],489 nM
same,GI50,[1]; [20],5420 nM
same,IC50,[1]; [20],6030 nM
same,GI50,[1]; [21],7050 nM
same,IC50,[1]; [21],8020 nM
same,GI50,[1]; [22],22 nM
same,IC50,[1]; [22],25 nM
same,GI50,[1]; [23],63 nM
same,IC50,[1]; [23],126 nM
same,GI50,[1]; [24],35.3 nM
same,IC50,[1]; [24],3330 nM
same,GI50,"[1]; Homo sapiens, MIA PaCa-2, 72 h, MiaPaCa-2 (Pancreas)",47 nM
same,GI50,[1]; [25],1.1 nM
same,IC50,[1]; [25],3.8 nM
same,GI50,[1]; [26],36.4 nM
same,IC50,[1]; [26],182 nM
same,GI50,[1]; [27],1280 nM
same,IC50,[1]; [27],2360 nM
same,GI50,[1]; [28],1630 nM
same,IC50,[1]; [28],6150 nM
same,GI50,[1]; [29],184 nM
same,IC50,[1]; [29],6350 nM
same,GI50,[1]; [30],244 nM
same,IC50,[1]; [30],644 nM
same,GI50,[1]; [31],5240 nM
same,IC50,[1]; [31],8370 nM
same,GI50,[1]; [32],567 nM
same,IC50,[1]; [32],9180 nM
same,GI50,[1]; [33],234 nM
same,IC50,[1]; [33],498 nM
same,GI50,[1]; [34],1350 nM
same,IC50,[1]; [34],1680 nM
same,GI50,[1]; [35],40.4 nM
same,IC50,[1]; [35],58.4 nM
same,GI50,[1]; [36],2050 nM
same,IC50,[1]; [36],3190 nM
same,GI50,[1]; [37],31.8 nM
same,IC50,[1]; [37],42.7 nM
same,GI50,[1]; [38],5440 nM
same,IC50,[1]; [38],10000 nM
same,GI50,[1]; [39],888 nM
same,IC50,[1]; [39],4010 nM
same,GI50,[1]; [40],3240 nM
same,IC50,[1]; [40],9740 nM
same,GI50,[1]; [41],7040 nM
same,IC50,[1]; [41],10000 nM
same,GI50,[1]; [42],76.4 nM
same,IC50,[1]; [42],4980 nM
same,GI50,[1]; [43],33.2 nM
same,IC50,[1]; [43],104 nM
same,GI50,[1]; [44],265 nM
same,IC50,[1]; [44],1970 nM
same,GI50,[1]; [45],6240 nM
same,IC50,[1]; [45],10000 nM
same,GI50,[1]; [46],10000 nM
same,IC50,[1]; [46],10000 nM
same,GI50,[1]; [47],9990 nM
same,IC50,[1]; [47],10000 nM
same,GI50,[1]; [48],5.7 nM
same,IC50,[1]; [48],88 nM
same,GI50,[1]; [49],4.8 nM
same,IC50,[1]; [49],21.7 nM
same,GI50,[1]; [50],0.5 nM
same,IC50,[1]; [50],16.9 nM
same,GI50,[1]; [51],47 nM
same,IC50,[1]; [51],92 nM
same,GI50,"[1]; JHH1, 72 h, JHH-1 (Liver)",1.6 nM
same,IC50,"[1]; JHH1, 72 h, JHH-1 (Liver)",94.6 nM
same,GI50,"[1]; JHH7, 72 h, JHH-7 (Liver)",83.4 nM
same,IC50,"[1]; JHH7, 72 h, JHH-7 (Liver)",548 nM
same,GI50,"[1]; JHH-2, 72 h, JHH-2 (Liver)",129 nM
same,IC50,"[1]; JHH-2, 72 h, JHH-2 (Liver)",4480 nM
same,GI50,"[1]; JHH-4, 72 h, JHH-4 (Liver)",363 nM
same,IC50,"[1]; JHH-4, 72 h, JHH-4 (Liver)",2320 nM
same,GI50,[1]; [52],38.5 nM
same,IC50,[1]; [52],96.8 nM
same,inhibition of colony formation vs trametinib and GDC0994,[2],greater levels of inhibition than seen with treatment with MEK inhibitors or ERK inhibitors
